# Assay results: patent EP1075467B1, “PYRAZOLE DERIVATIVES AS P-38 MAP KINASE INHIBITORS” (F. Hoffmann-La Roche AG, priority 1998, dated 1999)
# pIC50: −log10 of the molar value. Counter-ions that a name gives are not always drawn. Like-named read-outs stand apart in the source and are kept apart here.
# Assays:
# TNF-α Production In Rats = assay: Inhibition of LPS-induced TNF-α production in rats, in vivo assay; set-up: species or system Female Sprague-Dawley rats; details: dosed orally at 30 mg, LPS 50 µg/kg intraperitoneally after 30 min, serum TNF-α 1.5 h later by ELISA
# Protocol: Female Sprague-Dawley rats weighing 110-140 grams (Charles River, Hollister, CA) were acclimated for one week. Groups containing 8 […] each were dosed orally either with the test compounds dissolved in an aqueous vehicle containing 0.9% sodium chloride, 0.5% sodium carboxymethyl-cellulose, 0.4% polysorbate 80, 0.9% benzyl alcohol (CMC vehicle) or only vehicle (control group). After 30 min., the […] were injected intraperitoneally with 50 µg/kg of LPS (Sigma, St. Louis, MO).
# [1] = tested on: TNF-α Production In THP1 Cells; assay: Inhibition of LPS-induced TNF-α production in THP1 cells, in vitro assay; format: cell-based, human; details: THP-1 cells, LPS 0.5 µg/ml, 2 h, TNF-α in supernatant by ELISA, read-out: IC50 (concentration corresponding to half-maximal reduction in 450 nm absorbance), TNF-α release
# Protocol: The ability of the compounds of this invention to inhibit the TNF-α release was determined using a minor modification of the methods described in Blifeld, C. et al. Transplantation, Vol. 51(2), 498-503, (1991). THP-1 cells were suspended in culture medium [RPMI (Gibco-BRL, Gailthersburg, MD) containing 15% fetal bovine serum, 0.02 mM 2-mercaptoethanol], at a concentration of 2.5 x 10^6 cells/ml and then plated in 96 well plate (0.2 ml aliquots in each well). Test compounds were dissolved in DMSO and then diluted with the culture medium such that the final DMSO concentration was 5%. 20 μl aliquots of test solution or only medium with DMSO (control) were added to each well. The cells were incubated for 30 min., at 37 °C. LPS (Sigma, St. Louis, MO) was added to the wells at a final concentration of 0.5 μg/ml, and cells were incubated for an additional 2 h. At the end of the incubation period, culture supernatants were collected and the amount of TNF-α present was determined using an ELISA assay as described below. The amount of human TNF-α present was determined by a specific trapping ELISA assay using two anti-TNF-α antibodies (2TNF-H22 and 2TNF-[…]) described in Reimund, J. M., et al. GUT. Vol. 39(5), 684-689 (1996). Polystyrene 96-well plates were coated with 50 μl per well of antibody 2TNF-H22 in PBS (10 μg/ml) and incubated in a humidified chamber at 4 °C overnight. The plates were washed with PBS and then blocked with 5% nonfat-dry milk in PBS for 1 hour at room temperature and washed with 0.1% BSA (bovine serum albumin) in PBS. TNF standards were prepared from a stock solution of human recombinant TNF-α (R&D Systems, Minneapolis, MN). The concentration of the standards in the assay began at 10 ng/ml followed by 6 half log serial dilution's. […] Optical density of the sample and the reference were read at 450 nm and 650 nm, respectively. TNF-α levels were determined from a graph relating the optical density at 450 nm to the concentration used. The IC50 value was defined as the concentration of the test compound corresponding to half-maximal reduction in 450 nm absorbance. […]
Compound,% Inhibition (TNF-α content in the test group relative to the vehicle treated group) (TNF-α Production In Rats) [%],pIC50 ([1]; Homo sapiens),further results
"CNC(=O)COc1cccc(C(=O)c2cnn(-c3ccc(F)cc3)c2N)c1 [compound 34, 5-Amino-1-(4-fluorophenyl)-4-[3-(methylaminocarbonylmethyloxy)-benzoyl]pyrazole]",75,–,–
"Nc1c(C(=O)c2cccc(CCCN3CCOCC3)c2)cnn1-c1ccc(F)cc1 [compound 6, 5-Amino-1-(4-fluorophenyl)-4-[3-(3-morpholin-4-ylpropyl)benzoyl]pyrazole hydrochloride]",–,5.98,–
"Nc1c(C(=O)c2cccc(C#CCN3CCOCC3)c2)cnn1-c1ccc(F)cc1 [compound 3, 5-Amino-1-(4-fluorophenyl)-4-[3-{3-(morpholin-4-yl)prop-1-ynyl}benzoyl]pyrazole]",96,–,–
"Nc1c(C(=O)c2cccc(CCS(N)(=O)=O)c2)cnn1-c1ccc(F)cc1 [compound 50, 5-Amino-4-[3-(2-aminosulfonylethyl)benzoyl]-1-(4-fluorophenyl)pyrazole]",–,6.29,–
CN1CCN(C(=O)COc2cccc(C(=O)c3cnn(-c4ccc(F)cc4)c3N)c2)CC1 [compound 38],–,–,pIC50 [1]: 6.16
